From patent US20220125838A1, “IMMUNOMODULATORY GLYCOSPHINGOLIPIDS AND METHODS OF USE THEREOF” (President and Fellows of Harvard College, priority 2019, published 2022)

Tested on: NKT cells
Assay: In vivo cytokine assay (serum IL-2, IFN-γ, IL-4 after intraperitoneal injection)
Parameters: species or system mice
Conditions: 1 μg per mouse intraperitoneally
Protocol: To investigate the relevance of structural variation to immunomodulatory function, an in vitro panel screening assay of synthetic BfaGCs was carried out in a co-culture system with bone marrow-derived dendritic cells (BMDCs) and NKT cells. Levels of interleukin 2 (IL-2) production in the presence of individual BfaGCs clearly distinguished two groups with different levels of NKT cell recognition: strong and weak stimulators (FIG. 3A). Strikingly, all 10 strong stimulators have branched (either ω-2 or ω-3) sphinganine chains, whereas none of 11 weak stimulators have such branching. […] These molecules were individually injected into mice (1 μg per mouse, intraperitoneally), and systemic levels of cytokines were quantified and directly compared to those in mice injected with KRN7000 (a prototypic Th1 agonist) and mice injected with OCH (a Th2 agonist). Serum IL-2 levels 2 h after injection show trends consistent with in vitro results (KRN7000>SB2217>SB2219), which implies that BfaGCs are also functioning in vivo (FIG. 3B). […] Although It is well established that aGCs with very long fatty acyl chains (e.g., KRN7000, which has a C26 saturated chain) selectively induce Th1-type cytokines and that shorter-sphingoid-chain aGCs (e.g., OCH, which has a C8 saturated chain) skew toward Th2, aGCs with acyl and sphingoid chain lengths of long-chain fatty acids (C15-C19), prominently identified in B. fragilis, are less well investigated (21).
Mice (n=4 per group) were given 100 uL of KRN7000, OCH, SB2217 or SB2219 solution (1 ug, 0.9% DMSO in PBS) intraperitoneally. Animals were bled at 2 hours after injection from tail vein (˜100 uL per animal). At 18 hours after injection, animals were euthanized and second 100 uL blood was drawn by cardiac puncture. Fresh blood was collected to Z-Gel tubes (Sarstedt) to form blood clot and spun at 10,000×g for 5 minutes for serum separation. Samples were frozen at −80 degree until analysis by multiplex ELISA (Eve Technologies, Calgary, Canada).

[1] = serum at observed time points (2 and 18 hours)

| Compound | serum IL-2 level (2 h after injection) | Th1 cytokine (IFN-γ) induction in vivo [1] | Th2 cytokine (IL-4) induction in vivo [1] |
| --- | --- | --- | --- |
| CCCCCCCCCCCCCCCCCCCCCCCCCC(=O)N[C@@H](CO[C@H]1O[C@H](CO)[C@H](O)[C@H](O)[C@H]1O)[C@H](O)[C@H](O)CCCCCCCCCCCCCC [KRN7000] | KRN7000>SB2217>SB2219 | stimulates IFN-gamma | – |
| CCCCCCCCCCCCCCCCCCCCCCCC(=O)N[C@@H](CO[C@H]1O[C@H](CO)[C@H](O)[C@H](O)[C@H]1O)[C@H](O)[C@H](O)CCCCC [OCH] | – | – | stimulates IL-4 |
